{"source": "patent US20120100097A1", "about": "“CELLULOSE SUPPORT CONTAINING D-MANNOSE DERIVATIVES” (priority 2009, published 2012)", "key": {"[1]": {"system": "Escherichia coli with type 1 pili (strain 382)", "type": "cell-based", "conditions": "minimum inhibitive concentration (mg/ml) divided by that of D-mannose, x100; lower = stronger; free mannose derivatives before copolymerization", "excerpt": "The conducted bacteriological test is an agglutination yeast test. In fact the bacteria Escherichia coli with type 1 pili, have the capacity to agglutinate yeasts. The agglutination may be prevented by mannose derivatives. The strain 382 of Escherichia coli obtained from National Bacteriological Laboratory of Stockholm, which expresses in a stable manner type 1 pili, is used. The expression of the pili can be enhanced by growing bacteria by way of three subcultures in a nutrient broth (NB, oxiod). After culture the bacteria are centrifuged and added as suspension in the same amount of phosphate buffered saline (PBS pH 7.2). A concentration of bacteria equal to 2-3.10^9 bacteria/ml is obtained. Baker's yeasts are added as suspension into PBS at a final concentration of 5.10^8 cells/ml. The various mannose derivatives are diluted from the initial concentration of 20 mg/ml maximum in two stages in PBS. Into 50 μl of each diluted sugar 50 μl of Escherichia coli is added and incubated at room temperature for 15 min to allow interaction. Finally 50 μl of yeast is added into each tube. After another 15 min. incubation at room temperature and one night at 4° C., agglutination, in other words interaction between bacteria and yeast, is evaluated."}, "[2]": {"system": "Escherichia coli with type 1 pili (strain 382)", "type": "cell-based", "conditions": "agglutination test of the terpolymer directly on Escherichia coli strains; relative to D mannose = 100"}}}
{"compound": "COCCOCCO[C@H]1O[C@H](CO)[C@@H](O)[C@H](O)[C@@H]1O", "note": "[Compound 7, 2-[(2-methoxy-)ethoxy-]-ethyl α-D-Mannopyranoside]", "values": [{"measurement": "Inhibitive activity in %", "setting": "[1]", "result": 24, "unit": "%"}]}
{"compound": "CCS[C@H]1O[C@H](CO)[C@@H](O)[C@H](O)[C@@H]1O", "note": "[Ethyl 1-thio-α-D-mannopyranoside, reference compound]", "values": [{"measurement": "Inhibitive activity in %", "setting": "[1]", "result": 18, "unit": "%"}]}
{"compound": "OCC1O[C@H](OCc2ccccc2)C(O)[C@@H](O)[C@@H]1O", "note": "(stereo partly drawn) [Compound 10, Benzyl-α-D-Mannopyranoside]", "values": [{"measurement": "Inhibitive activity in %", "setting": "[1]", "result": 24, "unit": "%"}]}
{"compound": "OCCOCCO[C@H]1OC(CO)[C@@H](O)[C@H](O)C1O", "note": "(stereo partly drawn) [Compound 4, 2-[(2-hydroxy-)ethoxy-]-ethyl α-D-Mannopyranoside]", "values": [{"measurement": "Inhibitive activity in %", "setting": "[1]", "result": 24, "unit": "%"}]}
{"compound": "CO[C@H]1O[C@H](CO)[C@@H](O)[C@H](O)[C@@H]1O", "note": "[Methyl-α-D-Mannoside, reference compound]", "values": [{"measurement": "Inhibitive activity in %", "setting": "[1]", "result": 45, "unit": "%"}]}
{"compound": "C=CCO[C@H]1OC(CO)[C@@H](O)C(O)C1O", "note": "(stereo partly drawn) [Compound 8, Allyl-α-D-mannopyranoside]", "values": [{"measurement": "Inhibitive activity in %", "setting": "[1]", "result": 0.12, "unit": "%"}]}
{"compound": "O=C[C@@H](O)[C@@H](O)[C@H](O)[C@H](O)CO", "note": "[D-Mannose]", "values": [{"measurement": "Inhibitative activity", "setting": "[2]", "result": 100, "unit": "%"}, {"measurement": "Inhibitive activity in %", "setting": "[1]", "result": 100, "unit": "%"}]}
{"compound": "Nc1ccc(O[C@H]2O[C@H](CO)[C@@H](O)[C@H](O)[C@@H]2O)cc1", "note": "[Compound 12, p-Aminophenyl-α-D-Mannopyranoside]", "values": [{"measurement": "Inhibitive activity in %", "setting": "[1]", "result": 0.93, "unit": "%"}]}
{"compound": "O=[N+]([O-])c1ccc(O[C@H]2O[C@H](CO)[C@@H](O)[C@H](O[C@H]3O[C@H](CO)[C@@H](O)[C@H](O)[C@@H]3O)[C@@H]2O)cc1", "note": "[Compound 15, p-Nitrophenyl 3-O-α-D-Mannopyranosyl-α-DMannopyranoside]", "values": [{"measurement": "Inhibitive activity in %", "setting": "[1]", "result": 0.70, "unit": "%"}]}
